# Laboratory results reported in ChEMBL document CHEMBL1201862, “PubChem BioAssay data set” (2004).
#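 96-well plates; 48 h exposure; 5 concentrations. Endpoints by linear interpolation between flanking doses. Not reached: highest tested concentration assigned. Here, GI50 denotes the concentration required for 50% inhibition of growth.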 The source made the active and inactive calls. No stated cut-off is given here; in the data, active = GI50 up to about 1.1 µM and inactive = higher.
# Assays:
# Test in all cases: NCI anticancer screen, dose series, 48 h
# PC-3 = system: PC-3
# NCI-H226 = system: NCI-H226
# HT-29 = system: HT-29
# RXF 393 = system: RXF 393
# SF-268 = system: SF-268
# SF-539 = system: SF-539
# CAKI-1 = system: CAKI-1
# U-251 = system: U-251
# SNB-19 = system: SNB-19
# IGROV-1 = system: IGROV-1
# SK-MEL-28 = system: SK-MEL-28
# OVCAR-5 = system: OVCAR-5
# SNB-75 = system: SNB-75
# UO-31 = system: UO-31
# NCI/ADR-RES = system: NCI/ADR-RES
# HOP-92 = system: HOP-92
# MDA-N = system: MDA-N
# NCI-H23 = system: NCI-H23
# NCI-H522 = system: NCI-H522
# COLO 205 = system: COLO 205
# OVCAR-3 = system: OVCAR-3
# BT-549 = system: BT-549
# UACC-257 = system: UACC-257
# UACC-62 = system: UACC-62
# SK-MEL-2 = system: SK-MEL-2
# ACHN = system: ACHN
# LOX IMVI = system: LOX IMVI
# SF-295 = system: SF-295
# HL-60 = system: HL-60
# OVCAR-8 = system: OVCAR-8
# HOP-62 = system: HOP-62
# 786-0 = system: 786-0
# SW-620 = system: SW-620
# MOLT-4 = system: MOLT-4
# T47D = system: T47D
# TK-10 = system: TK-10
# EKVX = system: EKVX
# A549 = system: A549
# HCC 2998 = system: HCC 2998
# SN12C = system: SN12C
# MDA-MB-435 = system: MDA-MB-435
# HCT-15 = system: HCT-15
# A498 = system: A498
# RPMI-8226 = system: RPMI-8226
# M14 = system: M14
# NCI-H460 = system: NCI-H460
# K562 = system: K562
# MDA-MB-231 = system: MDA-MB-231
# HCT-116 = system: HCT-116
# DU-145 = system: DU-145
# SK-OV-3 = system: SK-OV-3
# KM12 = system: KM12
# CCRF-CEM = system: CCRF-CEM
# MCF7 = system: MCF7
# OVCAR-4 = system: OVCAR-4
# Malme-3M = system: Malme-3M
# SK-MEL-5 = system: SK-MEL-5
smiles,measurement,setting,value
Cc1ccc(C(=O)c2[nH]c(NCc3ccccc3)c(C(=S)Nc3ccccc3)c2N)cc1,GI50,PC-3,11.9 µM (inactive)
same,GI50,NCI-H226,11.5 µM (inactive)
same,GI50,HT-29,3.24 µM (inactive)
same,GI50,RXF 393,5.78 µM (inactive)
same,GI50,SF-268,12.9 µM (inactive)
same,GI50,SF-539,2.86 µM (inactive)
same,GI50,CAKI-1,14.3 µM (inactive)
same,GI50,U-251,4.04 µM (inactive)
same,GI50,SNB-19,14.7 µM (inactive)
same,GI50,IGROV-1,7.35 µM (inactive)
same,GI50,SK-MEL-28,3.64 µM (inactive)
same,GI50,OVCAR-5,14 µM (inactive)
same,GI50,SNB-75,4.85 µM (inactive)
same,GI50,UO-31,5.32 µM (inactive)
same,GI50,NCI/ADR-RES,2.58 µM (inactive)
same,GI50,HOP-92,6.58 µM (inactive)
same,GI50,MDA-N,3.51 µM (inactive)
same,GI50,NCI-H23,13.3 µM (inactive)
same,GI50,NCI-H522,2.21 µM (inactive)
same,GI50,COLO 205,3.87 µM (inactive)
same,GI50,OVCAR-3,11.8 µM (inactive)
same,GI50,BT-549,7.94 µM (inactive)
same,GI50,UACC-257,5.75 µM (inactive)
same,GI50,UACC-62,11.8 µM (inactive)
same,GI50,SK-MEL-2,10.8 µM (inactive)
same,GI50,ACHN,11.4 µM (inactive)
same,GI50,LOX IMVI,2.01 µM (inactive)
same,GI50,SF-295,5.06 µM (inactive)
same,GI50,HL-60,16.3 µM (inactive)
same,GI50,OVCAR-8,12.1 µM (inactive)
same,GI50,HOP-62,15.5 µM (inactive)
same,GI50,786-0,5.9 µM (inactive)
same,GI50,SW-620,2.38 µM (inactive)
same,GI50,MOLT-4,2.83 µM (inactive)
same,GI50,T47D,10.3 µM (inactive)
same,GI50,TK-10,11.2 µM (inactive)
same,GI50,EKVX,13.6 µM (inactive)
same,GI50,A549,9.2 µM (inactive)
same,GI50,HCC 2998,1.29 µM (inactive)
same,GI50,SN12C,14.5 µM (inactive)
same,GI50,MDA-MB-435,3.28 µM (inactive)
same,GI50,HCT-15,2.14 µM
same,GI50,A498,17 µM (inactive)
same,GI50,RPMI-8226,2.15 µM (inactive)
same,GI50,M14,1.95 µM (inactive)
same,GI50,NCI-H460,5.64 µM (inactive)
same,GI50,K562,2.13 µM (inactive)
same,GI50,MDA-MB-231,6.55 µM (inactive)
same,GI50,HCT-116,4.35 µM (inactive)
same,GI50,DU-145,13.8 µM (inactive)
same,GI50,SK-OV-3,2.77 µM (inactive)
same,GI50,KM12,2.28 µM (inactive)
same,GI50,CCRF-CEM,5.16 µM (inactive)
same,GI50,MCF7,2.88 µM (inactive)
same,GI50,OVCAR-4,2.74 µM (inactive)
CC(=O)OC1COC(n2nc(N)nc2C)C(OC(C)=O)C1OC(C)=O (stereo unspecified),GI50,PC-3,> 100 µM (inactive)
same,GI50,NCI-H226,> 100 µM (inactive)
same,GI50,HT-29,> 100 µM (inactive)
same,GI50,RXF 393,> 100 µM (inactive)
same,GI50,SF-268,> 100 µM (inactive)
same,GI50,CAKI-1,> 100 µM (inactive)
same,GI50,U-251,> 100 µM (inactive)
same,GI50,SNB-19,> 100 µM (inactive)
same,GI50,IGROV-1,> 100 µM (inactive)
same,GI50,SK-MEL-28,> 100 µM (inactive)
same,GI50,OVCAR-5,> 100 µM (inactive)
same,GI50,SNB-75,> 100 µM (inactive)
same,GI50,UO-31,> 100 µM (inactive)
same,GI50,NCI/ADR-RES,> 100 µM (inactive)
same,GI50,HOP-92,> 100 µM (inactive)
same,GI50,MDA-N,> 100 µM (inactive)
same,GI50,NCI-H23,> 100 µM (inactive)
same,GI50,NCI-H522,> 100 µM (inactive)
same,GI50,COLO 205,> 100 µM (inactive)
same,GI50,OVCAR-3,> 100 µM (inactive)
same,GI50,BT-549,> 100 µM (inactive)
same,GI50,UACC-257,> 100 µM (inactive)
same,GI50,UACC-62,> 100 µM (inactive)
same,GI50,SK-MEL-2,> 100 µM (inactive)
same,GI50,ACHN,> 100 µM (inactive)
same,GI50,LOX IMVI,> 100 µM (inactive)
same,GI50,SF-295,> 100 µM (inactive)
same,GI50,HL-60,> 100 µM (inactive)
same,GI50,OVCAR-8,> 100 µM (inactive)
same,GI50,HOP-62,> 100 µM (inactive)
same,GI50,786-0,> 100 µM (inactive)
same,GI50,SW-620,> 100 µM (inactive)
same,GI50,MOLT-4,> 100 µM (inactive)
same,GI50,T47D,> 100 µM (inactive)
same,GI50,TK-10,> 100 µM (inactive)
same,GI50,EKVX,> 100 µM (inactive)
same,GI50,A549,> 100 µM (inactive)
same,GI50,HCC 2998,> 100 µM (inactive)
same,GI50,SN12C,> 100 µM (inactive)
same,GI50,MDA-MB-435,> 100 µM (inactive)
same,GI50,HCT-15,> 100 µM
same,GI50,A498,> 100 µM (inactive)
same,GI50,RPMI-8226,> 100 µM (inactive)
same,GI50,M14,> 100 µM (inactive)
same,GI50,Malme-3M,> 100 µM (inactive)
same,GI50,NCI-H460,> 100 µM (inactive)
same,GI50,K562,> 100 µM (inactive)
same,GI50,MDA-MB-231,> 100 µM (inactive)
same,GI50,HCT-116,> 100 µM (inactive)
same,GI50,DU-145,> 100 µM (inactive)
same,GI50,SK-OV-3,> 100 µM (inactive)
same,GI50,KM12,> 100 µM (inactive)
same,GI50,CCRF-CEM,> 100 µM (inactive)
same,GI50,MCF7,> 100 µM (inactive)
same,GI50,OVCAR-4,> 100 µM (inactive)
same,GI50,SK-MEL-5,> 100 µM (inactive)
